Legend:
[1] = tested on: flank organs, seminal vesicles, prostate and other organs
hamster flank organ = assay: Flank organ, castrated immature male hamsters, topical treatment; type: in vivo, Syrian golden hamster; conditions: for change of pigmented macule vs T alone: Table 4, T + 1 mg fatty acid
Method in brief: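 Castrated immature male hamsters (5 per group) received 5 μl once daily on the right flank organ of ethanol vehicle, androgen (T or 5α-DHT), fatty acid, or androgen plus fatty acid. The left organ was left untreated. Pigmented macule and sebaceous gland growth were assessed with caliper long and short axes, as mean ± SD.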

PC-3 = assay: 5α-DHT formation from [3H]testosterone by PC-3 cells; type: cell-based, human; conditions: Homo sapiens, PC-3, read-out: 5α-DHT formed (% of control)
type 1 5α-reductase = type: biochemical
Method: [^3 H]4-MA binding assay were described in detail previously (Liang and Liao, 1992; Liang et al., 1983). […] The reaction was started by the addition of 25 μl of microsomes (25 μg protein). After 30-60 min incubation at 0° C., the [^3 H]4-MA bound to microsomes was collected on a Whatman GF/F glass fiber, washed and radioactivity determined (Liang and Liao, 1992).
The reaction was started by the addition of 25 μl of microsomes (25 μg protein). The mixture was incubated at 37° for 30-60 min and stopped by addition of 0.5 ml of ethyl acetate and mixing for 1 min. The organic solvent extract was removed under vacuum.

[2] = tested on: male accessory reproductive organs and preputial organs; assay: EGCG ip 7 days, male rats, body and organ weights; type: in vivo, rat
Method: (§1) Male Sprague-Dawley rats (body weight 180 g±10 g) were used. Each group had 5 rats. […] Rats in the control group received 0.1 ml 30% ethanol.

[3] = EGCG ip 7 days, male rats, body and organ weights; type: in vivo, rat; conditions: based on the increase in the weight
Method: as §1

[4] = tested on: prostate and preputial glands; assay: EGCG ip 7 days, normal and castrated rats with androgen; type: in vivo, rat; conditions: for prostate weight reduction: 5 mg/day
Method: Male Sprague-Dawley rats, 60±5 g body weight, were used. Rats were divided into 6 groups. Each group had 5 rats. Groups 1 and 2 were normal rats while the other 4 groups had rats castrated on the first day. […] The control rats (Group 1) received 0.1 ml of 30% ethanol.

[5] = tested on: Human prostate cancer PC-3 cells; assay: PC-3 tumor growth in nude mice; type: in vivo, nude mice (human tumor)
Method: Human prostate cancer PC-3 cells were grown in culture medium. About one million cells were injected into male nude mice and the growth of tumors were followed. Within two weeks, the tumor grew to about 100 mm^3. […] The 3 controls received water only.

[6] = biological target: rat small intestinal maltase; conditions: cited from earlier work
[7] = biological target: T1, 5α-Reductase of Rat Liver Microsomes (Rattus norvegicus, UniProt P24008); assay: [3H]4-MA binding assay, rat liver microsomes (tea catechins)
T1 sequence (P24008 1-259): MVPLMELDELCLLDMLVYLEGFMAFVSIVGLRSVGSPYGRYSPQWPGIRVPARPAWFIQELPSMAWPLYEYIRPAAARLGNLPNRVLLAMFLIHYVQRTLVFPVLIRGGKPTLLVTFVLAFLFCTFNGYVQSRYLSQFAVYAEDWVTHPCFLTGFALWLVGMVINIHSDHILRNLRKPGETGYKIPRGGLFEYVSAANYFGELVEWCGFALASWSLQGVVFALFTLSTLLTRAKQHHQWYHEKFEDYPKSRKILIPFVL
Method in brief: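 Microsomes from adult female Sprague-Dawley rat liver or Rat-1A cells expressing human 5α-reductase, 25 μg protein per reaction. Incubation 30–60 min at 0 °C; microsome-bound [3H]4-MA collected on glass-fibre filters and counted. Duplicate or triplicate determinations, values based on reaction rate.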

[8] = biological target: T2, α-Amylase of human saliva (Homo sapiens, UniProt P0DUB6); conditions: cited from earlier work
T2 construct: α-Amylase of human saliva; host or cells: human saliva

[9] = based on the increase in the weight
[10] = read-out: % Inhibition of [^3 H]4-MA binding

T2 sequence (P0DUB6 16-511): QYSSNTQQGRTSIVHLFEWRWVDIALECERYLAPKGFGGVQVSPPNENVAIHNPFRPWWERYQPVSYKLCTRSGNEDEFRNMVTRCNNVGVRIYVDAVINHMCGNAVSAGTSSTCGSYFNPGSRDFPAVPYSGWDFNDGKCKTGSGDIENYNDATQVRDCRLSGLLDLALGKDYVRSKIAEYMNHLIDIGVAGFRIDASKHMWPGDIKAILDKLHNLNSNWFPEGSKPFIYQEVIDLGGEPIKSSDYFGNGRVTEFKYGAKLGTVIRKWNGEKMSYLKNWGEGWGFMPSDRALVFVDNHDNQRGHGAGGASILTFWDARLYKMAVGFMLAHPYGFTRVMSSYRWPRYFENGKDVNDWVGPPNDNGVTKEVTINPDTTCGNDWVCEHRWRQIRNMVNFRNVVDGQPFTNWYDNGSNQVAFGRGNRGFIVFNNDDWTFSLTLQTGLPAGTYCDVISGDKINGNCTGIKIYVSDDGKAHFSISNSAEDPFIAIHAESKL

CCCCC/C=C\C/C=C\C/C=C\CCCCC(=O)O [γ-Linolenic acid, γ-linolenic acid]
left flank organ area ([1]; after injections, control 12.9±2.2): 9.9±2.4 | right flank organ area ([1]; after injections, control 14.6±1.5): 9.8±2.5 mm^2 | adrenal weight ([1]; control 0.022±0.004 g): 0.021 ± 0.004 g | seminal vesicles and prostate weight ([1]; control 0.156±0.026 g): 0.106 ± 0.022 g | spleen weight ([1]; control 0.157±0.027): 0.1867±0.048 | kidney weight ([1]; control 1.060±0.086 g): 1.121 ± 0.073 g | inhibition of 5α-DHT-induced growth of pigmented macule (hamster flank organ; 0.2 to 1 mg): no statistically significant inhibition | effective dosage (hamster flank organ; T-stimulated pigmented macule, per flank organ/day): ≥ 0.2 mg | Pigmented Macule, Untreated (L) (hamster flank organ; Table 4, 1 mg fatty acid alone, 18 days): 4.2 ± 0.6 mm^2 | Pigmented Macule, Untreated (L) (hamster flank organ; Table 4, T 0.5 μg + 1 mg fatty acid): 4.1 ± 0.3 mm^2 | change of pigmented macule vs T alone (hamster flank organ; listed as LA): -53% | change of pigmented macule vs T alone (hamster flank organ; listed as γ-LA): 53% | Percent Inhibition (hamster flank organ; Table 5, T 0.5 μg + fatty acid 1 mg, 21 days): 66% | Pigmented macule Right (+T) (hamster flank organ; Table 5, T 0.5 μg + fatty acid 1 mg, 21 days, T alone 49.6 ± 8.3): 17.0 ± 6.4 mm^2 | Pigmented macule Left (hamster flank organ; Table 5, fatty acid 1 mg without T, 21 days): 4.4 ± 1.6 mm^2 | Pigment Macule change (hamster flank organ; Table 6, T + LA 0.2 mg): -31% | Sebaceous Gland change (hamster flank organ; Table 6, T + LA 0.2 mg): -30% | Pigment Macule change (hamster flank organ; Table 6, T + LA 0.4 mg): -24% | Pigment Macule change (hamster flank organ; Table 6, T + LA 0.6 mg): -45% | Sebaceous Gland change (hamster flank organ; Table 6, T + LA 0.6 mg): -51% | Pigment Macule change (hamster flank organ; Table 6, T + LA 0.8 mg): -32% | Sebaceous Gland change (hamster flank organ; Table 6, T + LA 0.8 mg): -25% | Pigment Macule change (hamster flank organ; Table 6, T + LA 1.0 mg): -34% | Sebaceous Gland change (hamster flank organ; Table 6, T + LA 1.0 mg): -55% | maximum inhibition (hamster flank organ; daily dose of 1 to 2 mg γ-LA): 50 to 66% | effect on sebaceous gland growth stimulated by 5α-DHT (hamster flank organ; hamster, in vivo): did not significantly affect | maximal inhibition (hamster flank organ; reached by 1 mg, T-stimulated pigmented macule): 50% | activity at 1 µM (PC-3; 1 μM): 98 ± 6% | activity at 5 µM (PC-3; 5 μM): 50 ± 3% | activity at 20 µM (PC-3; 20 μM): 2 ± 2%

O=C(O[C@@H]1Cc2c(O)cc(O)cc2O[C@@H]1c1cc(O)c(O)c(O)c1)c1cc(O)c(O)c(O)c1 [EGCG, (-)Epigallocatechin-3-gallate]
competition with testosterone or NADPH (type 1 5α-reductase): did not appear to compete with testosterone or NADPH | final body weight ([2]; 15 mg/day, 7 days, control 238.2 ± 10.6): 191.8 ± 12.0 g | Coagulating gland ([2]; 15 mg/day, control 78.0 ± 5.9): 45.5 ± 11.7 mg | Preputial gland ([2]; 15 mg/day, control 126.8 ± 24.8): 76.1 ± 33.1 mg | Ventral prostate ([2]; 15 mg/day, control 201.9 ± 36.2): 142.2 ± 10.7 mg | Seminal Vesicle ([2]; 15 mg/day, control 234.3 ± 11.7): 164.9 ± 30.4 mg | Coagulating gland, % of Control, Final ([2]; based on the full weight): 58.3 % of Control | Final body weight, % of Control, Final ([2]; based on the full weight): 80.5 % of Control | Preputial gland, % of Control, Final ([2]; based on the full weight): 60.0 % of Control | Seminal Vesicle, % of Control, Final ([2]; based on the full weight): 70.4 % of Control | Ventral prostate, % of Control, Final ([2]; based on the full weight): 70.4 % of Control | Coagulating gland, % of Control, Increase [2, 9]: 39.8 % of Control | Seminal Vesicle, % of Control, Increase [2, 9]: 52.3 % of Control | Ventral prostate, % of Control, Increase [2, 9]: 62.0 % of Control | Body weight, % of Control, Increase [3]: 20.3 % of Control | prostate weight reduction ([4]; castrated + 5α-DHT): no reduction | prostate weight reduction ([4]; castrated + testosterone): about 23% | body weight reduction ([4]; normal and castrated rats with testosterone or 5α-DHT, 7 days): 8±1% | prostate weight reduction ([4]; normal rats): about 30% | pathology examination of organs and blood ([4]; rat, in vivo): did not reveal any abnormal growth or pathogenic effects | tumor size ([5]; FIG. 33, 1 mg/day, two weeks, controls about 450): smaller than 100 mm^3 | tumor size ([5]; FIG. 34, 1400 mm^3 tumor, after 2 weeks of EGCG): about 850 mm^3 | tumor size ([5]; FIG. 34, 1400 mm^3 tumor, after another 2 weeks of EGCG): about 500 mm^3 | tumor size ([5]; FIG. 34, during the 2 week injection): about 100 mm^3 | tumor size ([5]; FIG. 34, within 2 weeks after injection stopped): about 800 mm^3 | tumor size ([5]; FIG. 34, within 3 weeks after injection stopped): over 1200 mm^3 | IC50 [6]: 50 to 500 µM | IC50 [7]: 3 µM | inhibition at 5 µM [7, 10]: 61% | inhibition at 10 µM [7, 10]: 74% | inhibition at 20 µM [7, 10]: 79% | inhibition at 40 µM [7, 10]: 88% | inhibition at 200 µM [7, 10]: 93% | IC50 [8]: 50 to 500 µM
